Results: US11666589B2, “Pivarubicin and benzarubicin compositions” (Paradox Pharmaceuticals, Inc., priority 2020, dated 2023)

Legend:
[1] = system: LM2 tumors; assay: Orthotopic xenograft of luminescent MDA-MB-231 (LM2) cells in mammary glands
Experimental: Monolayer LM2 cells were trypsinized and resuspended in DMEM media containing 10% FBS and 1× antibiotic/antimitotic. Cell concentration was adjusted to yield 2.5 […] for each 10 uL injection in PBS. After preparation for injection, cells were kept on ice at all times. Cells were surgically implanted into the left and right inguinal mammary glands of 4-week-old female NSG mice (NOD/SCID IL2Rγ−/−; Jackson Laboratory [Bar Harbor Me.] #5557) bred in-house. Mice were anesthetized with 1.2% avertin via intraperitoneal (i.p.) injection prior to surgery. Mice were also injected subcutaneously between shoulder blades with rimadyl for pain relief on day of surgery and on day following surgery. Primary tumor growth prior to and during treatment was monitored initially by manual palpation for tumor appearance, then twice weekly using digital calipers. Tumor volume was calculated by the formula: Volume=(Width2×Length)/2. When tumors attained a volume of approximately […], cohorts of 10 randomized drug-naïve, female, NSG mice (8±1 weeks old, 23±2 g) were administered the maximum tolerated dose (MTD) of pivarubicin, doxorubicin or the equivalent volume of vehicle (70% sterile saline, 15% ethanol, 15% Cremophor EL) as a bolus i.p. injection in parallel experiments. Tumor volumes were measured in a blinded manner.
Mice were imaged using Xenogen In Vivo Imaging System® Lumina from Perkin Elmer (Waltham Mass.). Stock D-Luciferin, Firefly, potassium salt (Perkin Elmer, 122799) was prepared in DPBS at a concentration of 30 mg/mL and sterile filtered with 0.2 micrometer syringe filter. Luciferin was further diluted to 15 mg/mL in DPBS prior to injection. Mice were injected i.p. with 200 uL of luciferin. Primary tumors were imaged by placing mice in dorsal recumbency using luminescent setting of auto exposure, field of view D with resolution setting of 4 (medium binning), 10 minutes after injection with luciferin, approximately 5 minutes following anesthetization with isoflurane. Data are reported as total flux in photons per second (p/s) using Living Image software.
In a study of doxorubicin treatment of TNBC-bearing NSG mice, LM2 cells were implanted into the 4R and 4L cleared mammary fat pads of female NSG mice and permitted to proliferate for 26 days until a tumor volume range of 125-190 mm3 was reached based on caliper measurements. Doxorubicin was administered IP rapid push in 70% sterile saline, 15% EtOH, 15% Cremophor EL at 14-day intervals, with tumor volumes measured at indicated days post-implantation, as summarized in FIG. 7A. […] At endpoint, mice were euthanized, and primary tumors resected for volume (FIG. 7B), weight (FIG. 7C), and luminescence (FIG. 7D) measurements. Endpoint results are expressed as the mean±standard error of 10 mice per group. Statistical significance was determined by the Wilcoxon rank-sum test.
Pivarubicin treatment of TNBC-bearing NSG mice was also studied. LM2 cells were implanted into the 4R and 4L cleared mammary fat pads of female NSG mice and permitted to proliferate for 22-24 days until a tumor volume range of 125-190 mm3 was reached based on caliper measurements. Pivarubicin was administered IP rapid push in 70% sterile saline, 15% EtOH, 15% Cremophor EL as either a single dose at 26.6 mg/kg (FIG. 8A) or in two 16.5-mg/kg doses at a 14-day interval (FIG. 8B) with tumor volumes measured at indicated days post-implantation. […] At endpoint, mice were euthanized, and primary tumors resected for volume (FIG. 8C) and weight (FIG. 8D) measurements. Results are expressed as the mean±standard error of 10 mice per group. Statistical significance was determined by the Wilcoxon rank-sum test.

[2] = system: LNCaP human prostate cancer cells transfected with Bcl-2; assay: MTT cytotoxicity in Bcl-2 transfected LNCaP cells; assay type: cell-based; details: 5 μM for 1 h, 72 h drug-free
Experimental: (§1) For the results shown in FIG. 5A, LNCaP cells transfected with Bcl-2 expression vector were assessed for doxorubicin or pivarubicin cytotoxicity, compared to cells transfected with empty vectors. Cells were exposed to 5 μM drug for 1 h, washed, and further incubated for 72 h in drug-free medium. Viability was determined by the MTT assay. For the results shown in FIG. 5B, pivarubicin cytotoxicity in HL-60 cells transfected with Bcr-Abl or Bcl-XL expression vectors were assessed for doxorubicin or pivarubicin cytotoxicity and compared as described for FIG. 5A.

[3] = system: 32D.3, J774.2 and 293 cells; assay: Biotransformation to AD 288 after uptake into cells; assay type: in vitro ADME; details: initial (1 hour), 1 μM
Text: (§2) Intracellular drug was extracted and analyzed by fluorescence HPLC as described previously.

[4] = system: HL-60 human promyelocytic leukemia cells transfected with Bcl-XL; assay: Cytotoxicity in Bcl-XL transfected HL-60 cells; assay type: cell-based; details: 5 μM for 1 h, 72 h drug-free
Experimental: as §1

[5] = system: HL-60 cells transfected with Bcr-Abl; assay: Cytotoxicity in Bcr-Abl transfected HL-60 cells; assay type: cell-based, human
Experimental: as §1

[6] = system: 32D.3 murine myeloid cells; assay: Drug biotransformation analysis (HPLC of intracellular drug) in 32D.3 cells; assay type: in vitro ADME
Text: as §2

[7] = system: human LNCaP prostate cancer cells; assay: Pivarubicin cytotoxicity after PKCd siRNA transfection; assay type: cell-based; details: PKCd-siRNA-transfected cells
[8] = system: 293 embryonic human kidney cells; assay: Drug biotransformation analysis (HPLC of intracellular drug) in 293 cells; assay type: in vitro ADME
Text: as §2

[9] = target: T1, PKCd (Mus musculus, UniProt P28867); assay: PKCd translocation (cell fractionation, immunoblot); assay type: cell-based, murine; details: within 4 hours of treatment with 5 μM; 32D.3 cells
T1 construct: endogenous in cells; host or cells: 32D.3 murine myeloid cells
T1 sequence (P28867 whole entry): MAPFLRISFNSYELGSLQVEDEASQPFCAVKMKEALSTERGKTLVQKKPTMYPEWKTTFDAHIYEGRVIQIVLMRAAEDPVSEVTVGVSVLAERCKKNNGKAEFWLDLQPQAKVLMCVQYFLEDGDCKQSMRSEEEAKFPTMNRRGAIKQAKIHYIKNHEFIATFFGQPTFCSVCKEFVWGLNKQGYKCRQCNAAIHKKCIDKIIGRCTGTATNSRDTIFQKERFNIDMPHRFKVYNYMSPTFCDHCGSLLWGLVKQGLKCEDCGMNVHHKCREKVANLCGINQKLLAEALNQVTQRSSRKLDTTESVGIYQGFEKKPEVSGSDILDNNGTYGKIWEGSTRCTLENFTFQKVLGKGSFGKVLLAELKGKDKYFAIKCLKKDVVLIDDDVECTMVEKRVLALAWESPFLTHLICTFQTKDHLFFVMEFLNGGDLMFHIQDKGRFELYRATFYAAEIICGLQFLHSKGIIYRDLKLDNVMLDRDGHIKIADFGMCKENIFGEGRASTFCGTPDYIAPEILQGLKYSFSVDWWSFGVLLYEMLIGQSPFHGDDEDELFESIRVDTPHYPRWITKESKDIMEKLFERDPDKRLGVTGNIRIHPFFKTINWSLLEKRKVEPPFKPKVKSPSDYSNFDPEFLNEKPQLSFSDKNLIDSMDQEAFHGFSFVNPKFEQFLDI
Text: Inhibition of PKCd activity also selectively impedes pivarubicin cytotoxicity.

[10] = system: J774.2 murine macrophage-like cells; assay: Drug biotransformation analysis (HPLC of intracellular drug) in J774.2 cells; assay type: in vitro ADME
Text: as §2

[11] = two doses of 16.5 mg/kg i.p. at two-week interval, endpoint

| SMILES | tumor growth compared with vehicle treatment (volume, weight) ([1]; 1.4 mg/kg, then 1.6 mg/kg 14 days later, i.p.) | weight loss in tumor-bearing mice ([1]; after 1.4 mg/kg and 1.6 mg/kg) | effect of Bcl-2 overexpression on rate of drug-induced apoptosis [2] | drug initially biotransformed [3] | effect of Bcl-XL overexpression on rate of drug-induced apoptosis [4] | effect of Bcr-Abl on cytotoxicity [5] | % Parent Compound ([6]; 32D.3, 1 hr, 1 μM drug, 37° C.) [%] | % Parent Compound ([6]; 32D.3, 8 hr (1 hr drug + 7 hours drug-free medium)) [%] | increase in concentration required to achieve 50% cell kill [7] [fold] | mean decrease in tumor volume compared with mean volume prior to drug administration ([1]; single MTD dose (26.6 mg/kg i.p.)) [%] | mean weight loss (poorly reversible) ([1]; single MTD, tumor-bearing NSG mice) [%] | decrease in tumor volume compared with vehicle treatment [1, 11] [%] | decrease in tumor weight compared with vehicle treatment [1, 11] [%] | % Parent Compound ([8]; 293, 1 hr, 1 μM drug, 37° C.) [%] | % Parent Compound ([8]; 293, 8 hr (1 hr drug + 7 hours drug-free medium)) [%] | PKCd translocation [9] | % Parent Compound ([10]; J774.2, 1 hr, 1 μM drug, 37° C.) [%] | % Parent Compound ([10]; J774.2, 8 hr (1 hr drug + 7 hours drug-free medium)) [%] |
| --- | --- | --- | --- | --- | --- | --- | --- | --- | --- | --- | --- | --- | --- | --- | --- | --- | --- | --- |
| COc1cccc2c1C(=O)c1c(O)c3c(c(O)c1C2=O)C[C@@](O)(C(=O)CO)C[C@@H]3O[C@H]1C[C@H](N)[C@H](O)[C@H](C)O1 [Doxorubicin, reference compound] | failed to exhibit reduced growth | excessive and irreversible weight loss |  |  |  |  |  |  |  |  |  |  |  |  |  |  |  |  |
| COc1cccc2c1C(=O)c1c(O)c3c(c(O)c1C2=O)C[C@@](O)(C(=O)COC(=O)C(C)(C)C)C[C@@H]3O[C@H]1C[C@H](NCc2ccccc2)[C@H](O)[C@H](C)O1 [Pivarubicin, N-Benzyladriamycin-14-pivalate] |  |  | do not impede | less than 10% | do not impede | no inhibitory effect | 100 | 96 | 2.5 | 40 | 20 | 50 | 40 | 98 | 94 | translocates from the cytosolic to the membrane fraction | 90 | 90 |
